Data published in ChEMBL document CHEMBL1146495, “Iridoids as allelochemicals and DNA polymerase inhibitors” (J Nat Prod, 2004).
Activity calls are given as the source filed them. The calls are words filed in the database; no cut-off is given here.

Assays:
Tribolium castaneum [1] = assay: Antifeedant activity against Tribolium castaneum assessed as feeding deterrence index at 200 ug/disk after 5 days by flour disk assay; assay type: functional, organism-based
Tribolium castaneum [2] = assay: Insecticidal activity against Tribolium castaneum fifth instar larvae assessed as pupal stage duration at 60 ug/uL, treated topically; assay type: functional
Tribolium castaneum [3] = assay: Antifeedant activity against Tribolium castaneum assessed as relative consumption rate at 200 ug/disk after 5 days by flour disk assay; assay type: functional
[4] = molecular target: DNA polymerase I, thermostable (Thermus aquaticus, UniProt P19821); assay: Inhibition of Thermus aquaticus-DNA polymerase by PCR analysis
Tribolium castaneum [5] = assay: Antifeedant activity against Tribolium castaneum assessed as relative growth rate at 200 ug/disk after 5 days by flour disk assay; assay type: functional
Tribolium castaneum [6] = assay: Antifeedant activity against Tribolium castaneum assessed as efficiency of conversion of ingested food at 200 ug/disk after 5 days by flour disk assay; assay type: functional, Instar larval stage
Tribolium castaneum [7] = assay: Insecticidal activity against Tribolium castaneum fifth instar larvae assessed as mortality at 60 ug/uL, treated topically; assay type: functional
[8] = molecular target: DNA polymerase I, thermostable (Thermus aquaticus) (UniProt P19821); assay: Inhibition of Thermus aquaticus-DNA polymerase at 500 uM by PCR analysis
DNA polymerase I, thermostable (Thermus aquaticus), sequence (P19821 whole entry): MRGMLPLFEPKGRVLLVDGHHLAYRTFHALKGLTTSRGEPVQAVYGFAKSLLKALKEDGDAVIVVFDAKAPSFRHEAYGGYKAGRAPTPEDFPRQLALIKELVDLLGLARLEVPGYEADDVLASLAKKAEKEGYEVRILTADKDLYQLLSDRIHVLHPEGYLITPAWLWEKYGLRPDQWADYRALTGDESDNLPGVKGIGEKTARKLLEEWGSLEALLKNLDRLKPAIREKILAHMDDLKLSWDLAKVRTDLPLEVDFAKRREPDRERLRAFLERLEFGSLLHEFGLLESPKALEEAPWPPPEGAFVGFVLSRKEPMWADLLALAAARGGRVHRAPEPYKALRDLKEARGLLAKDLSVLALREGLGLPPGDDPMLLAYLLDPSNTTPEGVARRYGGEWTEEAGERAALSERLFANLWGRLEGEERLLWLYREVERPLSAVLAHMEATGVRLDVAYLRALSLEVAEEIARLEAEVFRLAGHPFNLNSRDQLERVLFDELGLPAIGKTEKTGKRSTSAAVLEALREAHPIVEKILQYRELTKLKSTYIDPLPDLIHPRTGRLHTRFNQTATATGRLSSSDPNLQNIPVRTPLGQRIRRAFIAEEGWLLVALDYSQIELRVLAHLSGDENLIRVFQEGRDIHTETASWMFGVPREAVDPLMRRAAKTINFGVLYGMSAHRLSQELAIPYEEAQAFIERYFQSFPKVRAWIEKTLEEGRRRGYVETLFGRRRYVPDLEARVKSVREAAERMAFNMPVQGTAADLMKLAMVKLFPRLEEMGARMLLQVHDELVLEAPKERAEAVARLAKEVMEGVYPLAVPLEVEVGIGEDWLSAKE

DNA polymerase I, thermostable, sequence (P19821 whole entry): as above

Structure (SMILES) | Activity (Tribolium castaneum [1]) | Activity (Tribolium castaneum [2]) [days] | Activity (Tribolium castaneum [3]) [mg/mg/day] | IC50 [4] [µM] | Activity (Tribolium castaneum [5]) [mg/mg/day] | Activity (Tribolium castaneum [6]) [%] | Activity (Tribolium castaneum [7]) [%] | Activity [8]
CC(=O)O[C@@]1(C)C[C@@H](O)[C@]2(O)C=CO[C@@H](O[C@@H]3O[C@H](CO)[C@@H](O)[C@H](O)[C@H]3O)[C@@H]21 | inactive | 11.3 | 0.058 | 214 | -0.004 | -8.908 | 56.6 | –
CC(=O)OC[C@H]1O[C@@H](O[C@@H]2OC=C[C@H]3[C@H](OC(C)=O)[C@@H]4O[C@]4(COC(C)=O)[C@@H]23)[C@H](OC(C)=O)[C@@H](OC(C)=O)[C@@H]1OC(C)=O | – | – | – | – | – | – | – | inactive
CC(=O)O[C@@H]1[C@@H](OC(C)=O)[C@H](O[C@@H]2OC=C[C@H]3[C@H](OC(C)=O)[C@@H]4O[C@]4(CO[Si](c4ccccc4)(c4ccccc4)C(C)(C)C)[C@@H]23)O[C@H](CO[Si](c2ccccc2)(c2ccccc2)C(C)(C)C)[C@H]1OC(C)=O | – | – | – | – | – | – | – | inactive
CCCCCCCC/C=C\CCCCCCCCOC[C@H]1O[C@@H](O[C@@H]2OC=C[C@H]3[C@H](O)[C@@H]4O[C@]4(COCCCCCCCC/C=C\CCCCCCCC)[C@@H]23)[C@H](O)[C@@H](O)[C@@H]1O | – | – | – | – | – | – | – | inactive
OC[C@H]1O[C@@H](O[C@@H]2OCC[C@H]3[C@H](O)[C@@H]4O[C@]4(CO)[C@@H]23)[C@H](O)[C@@H](O)[C@@H]1O | – | – | – | – | – | – | – | inactive
OC[C@H]1O[C@@H](O[C@@H]2OC=C[C@H]3[C@H](O)[C@@H]4O[C@]4(CO)[C@@H]23)[C@H](O)[C@@H](O)[C@@H]1O [CATALPOL] | inactive | 8.2 | 0.017 | 47.8 | -0.01 | -66.101 | 73.3 | –
C[C@]1(O)C[C@@H](O)[C@]2(O)C=CO[C@@H](O[C@@H]3O[C@H](CO)[C@@H](O)[C@H](O)[C@H]3O)[C@@H]21 [HARPAGIDE] | – | – | – | 417 | – | – | – | –
C[C@]1(O)C[C@@H](O)[C@]2(O)C=CO[C@@H](O[C@H]3O[C@H](CO)[C@@H](O)[C@H](O)[C@H]3O)[C@@H]21 [HARPAGIDE] | inactive | 12.1 | 0.019 | – | -0.003 | -30.729 | 60 | –
